2 compounds from US20250066370A1, “BICYCLIC TRIAZINE DERIVATIVES FOR THE TREATMENT OF CANCER” (DEUTSCHES KREBSFORSCHUNGSZENTRUM, priority 2022, published 2025) can be followed below.

Molecules are shown by their SMILES.

The assay has as its system HCC1954. The assay is described as follows: Proliferation assay: cell line panel, HCC1954. The settings on record: Homo sapiens, 96 h, breast cancer, HER2 positive, 4 days, read-out: Result Category, IC50 (mean). In kind it is cell-based. The source says: Human tumour cells were originally obtained from the American Type Culture Collection (ATCC), from Cell Line Services GmbH (CLS), from the Deutsche Sammlung von Mikroorganismen und Zellkulturen (DSMZ, German Collection of Microorganisms and Cell Cultures), from the Japanese Cancer Research Resources Bank (JCRB), from Public Health England, from the European Collection of Authenticated Cell Cultures (ECACC), from Asterand Biosciences, or from the National Cancer Institute (NCI). Cultivated tumour cells were plated at the density as indicated in Table 6 in 96-well multitier plates in 200 microL of their respective growth medium supplemented 10% fetal calf serum. […] Cell proliferation was determined by staining the cells with crystal violet: the cells were fixed by adding 20 microL/measuring point of an 11% glutaric aldehyde solution for 15 minutes at room temperature. […] The extinction was determined by photometry at a wavelength of 595 nm. The change of cell number, in percent, was calculated by normalization of the measured values to the extinction values of the zero-point plate (=0%) and the extinction of the untreated (0 μM) cells (=100%). […]

On to `FC(F)(F)c1ccc(-c2cnc(CNc3nc(N4CCOCC4)nn4c(C(F)(F)F)cnc34)[nH]2)cc1` [Example 7, 2-(morpholin-4-yl)-7-(trifluoromethyl)-N-({5-[4-(trifluoromethyl)phenyl]-1H-imidazol-2-yl}methyl)imidazo[2,1-f][1,2,4]triazin-4-amine], for which the IC50 was in the range of 30 to 100 nM. Then `FC(F)(F)Oc1ccc(-c2cnc(CNc3nc(N4CCOCC4)nn4c(C(F)(F)F)cnc34)[nH]2)cc1` [Example 8, 2-(morpholin-4-yl)-N-({5-[4-(trifluoromethoxy)phenyl]-1H-imidazol-2-yl}methyl)-7-(trifluoromethyl)imidazo[2,1-f][1,2,4]triazin-4-amine], with 30 to 100 nM.
